Reference: patent publication EP0987275B1, “Molecules that home to a selected organ or tissue in vivo” (LA JOLLA CANCER RESEARCH FOUNDATION, priority 1995, dated 2008)
Where no end group is shown, it is not given here.

Tests used:
brain = experiment: In vivo panning of phage peptide display libraries, brain as the selected organ (kidney control); set-up: species or system mice; settings: phage recovered from brain; for (% PHAGE): % of the 73 clones sequenced; for # PHAGE DISPLAYING SAME A.A. SEQUENCE: second and third rounds of in vivo panning, 73 cloned phage sequenced
Description: Phage display libraries were constructed using the fuse 5 vector as described by Koivunen et al. (supra, 1995; see, also, Koivunen et al. Meth. Enzymol. 245:346-369 (1994b), which is incorporated herein by reference). Six libraries encoding peptides designated CX5C (SEQ ID NO: 36), CX6C (SEQ ID NO: 37), CX7C (SEQ ID NO: 38), CX9 (SEQ ID NO: 39), X2CX14CX2 (SEQ ID NO: 40) and X2CX18 (SEQ ID NO: 41) were prepared, where "C" indicates cysteine and "XN" indicates the given number of individually selected amino acids. These libraries can display cyclic peptides when at least two cysteine residues are present in the peptide.
Oligonucleotides were constructed such that "C" was encoded by the codon TGT and "XN" was encoded by NNK, where "N" is equal molar mixtures of A, C, G and T, and where "K" is equal molar mixtures of G and T. Thus, the peptide represented by CX5C (SEQ ID NO: 36) can be represented by an oligonucleotide having the sequence TGT(NNK)5TGT (SEQ ID NO: 42). Oligonucleotides were made double stranded by 3 cycles of PCR amplification, purified and ligated to the nucleic acid encoding the gene III protein in the fuse 5 vector such that, upon expression, the peptide is present as a fusion protein at the N-terminus of the gene III protein.
The vectors were transfected by electroporation into MC1061 cells. Bacteria were cultured for 24 hr in the presence of 20 µg/ml tetracycline, then phage were collected from the supernatant by precipitation twice using polyethylene glycol. Each library contained about 5 x 10^9 to 5 x 10^14 transducing units (TU; individual recombinant phage).
(§1) A mixture of phage libraries containing 1 x 10^14 TU was diluted in 200 µl DMEM and injected into the tail vein of anesthetized BALB\c mice (2 month old females; Jackson Laboratories; Bar Harbor ME); Avertin™ (0.015 ml/g) was used as anesthetic (see Pasqualini and Ruoslahti, supra, 1996). After 1-4 minutes, mice were snap frozen in liquid nitrogen. To recover the phage, carcasses were partially thawed at room temperature for 1 hr, organs were collected and weighed, then were ground in 1 ml DMEM-PI (DMEM containing protease inhibitors (PI); phenylmethylsulfonyl fluoride (PMSF; 1 mM), aprotinin (20 µg/ml), leupeptin (1 µg/ml)).
(§2) Organ samples were washed 3 times with ice cold DMEM-PI containing 1% bovine serum albumin (BSA), then directly incubated with 1 ml K91-kan bacteria for 1 hr. Ten ml NZY medium containing […] tetracycline (NZY/tet) was added to the bacterial culture, the mixture was incubated in a 37°C shaker for 1 hr, then 200 µl aliquots were plated in agar plates containing 40 µg/ml tetracycline (tet/agar).
(§3) Individual colonies containing phage recovered from brain or kidney were grown for 16 hr in 5 ml NZY/tet. The bacterial cultures obtained from the individual colonies were pooled and the phage were purified and re-injected into mice as described above for a second round of in vivo panning. A third round of panning also was performed. Phage DNA was purified from individual bacterial colonies obtained from the second and the third round of in vivo panning and the DNA sequences encoding the peptides expressed by selected phage were determined (see Koivunen et al., supra, 1994b).
Three rounds of in vivo panning in mice were performed. Kidney was used as a control organ. Mice were injected with two different mixtures of phage libraries. The first mixture contained libraries encoding CX9 (SEQ ID NO: 39), CX5C (SEQ ID NO: 36), CX6C (SEQ ID NO: 37) and CX7C (SEQ ID NO: 38) peptides (CX5-7/CX9 mixture; SEQ ID NOS: 36-39). The second mixture contained libraries encoding X2CX14CX2 (SEQ ID NO: 40) and X2CX18 (SEQ ID NO: 41) peptides (X2CX18/X2CX14CX2 mixture; SEQ ID NOS: 40 and 41).
The phage library mixtures were administered to mice via tail vein injection. Phage input was […] of the CX5-7/CX9 (SEQ ID NOS: 36-39) mixture or 1 x 10^14 TU of the X2CX18/X2CX14CX2 (SEQ ID NOS: 40 and 41) mixture. […]

kidney = experiment: In vivo panning of phage peptide display libraries, kidney as the selected organ (brain control); set-up: species or system mice; settings: phage recovered from kidney; for (% PHAGE): % of the 48 clones sequenced; for # PHAGE DISPLAYING SAME A.A. SEQUENCE: 48 cloned phage sequenced
Description: as §1, §2, §3
The same methodology used to isolate phage expressing brain homing peptides was used to isolate phage expressing peptides that home to kidney. In these experiments, brain was used as the control organ. A mixture of the CX5C (SEQ ID NO: 36) and the CX6C (SEQ ID NO: 37) libraries was administered as described above. Homing of phage to the kidney was obtained and an approximately 3x to 7x enrichment of phage homing to kidney was observed following a second round of in vivo panning.
The amino acid sequences were determined for the inserts in 48 cloned phage that homed to kidney. The peptides expressed by these phage were represented by two predominant sequences, CLPVASC (SEQ ID NO: 21; 46% of the clones sequenced) and CGAREMC (SEQ ID NO: 22; 17% of the clones; see Table 2). In addition, the peptide CKGRSSAC (SEQ ID NO: 23) appeared three times and three other peptides were present twice each.

[1] = system: B16B15b mouse melanoma cells; experiment: In vivo panning in mice bearing an implanted mouse melanoma tumor; set-up: species or system nude mice; settings: phage recovered from B16B15b tumors; 89 cloned phage sequenced
Description: Mice bearing a melanoma were produced by implantation of B16B15b mouse melanoma cells, which produce highly vascularized tumors. B16B15b mouse melanoma cells were injected subcutaneously into the mammary fat pad of nude mice (2 months old) and tumors were allowed to grow until the diameter was about 1 cm. In vivo panning was performed as disclosed above. Approximately 1 x 10^12 transducing units of phage expressing the CX5C (SEQ ID NO: 36), CX6C (SEQ ID NO: 37) or […] library were injected, iv, and allowed to circulate for 4 min. Mice then were snap frozen in liquid nitrogen while under anesthesia, tumor tissue and brain (control organ) were removed, and phage were isolated as described above. Three rounds of in vivo panning were performed.
The amino acid sequences were determined for the inserts in 89 cloned phage recovered from the B16B15b tumors. The peptides expressed by these phage were represented by two predominant sequences, CLSGSLSC (SEQ ID NO: 55; 52% of the clones sequenced) and WGTGLC (SEQ ID NO: 52; 25% of the clones; see Table 4).

| Substance | (% PHAGE) (brain) [%] | # PHAGE DISPLAYING SAME A.A. SEQUENCE (brain) | (% PHAGE) (kidney) [%] | # PHAGE DISPLAYING SAME A.A. SEQUENCE (kidney) | also measured |
| --- | --- | --- | --- | --- | --- |
| LNCDYQGTNPATSVSVPCTV (displayed on phage) [peptide from phage recovered from brain] | 1.4 | 1 | – | – | – |
| CGVRLGC (displayed on phage) [peptide from phage recovered from brain] | 4.1 | 3 | – | – | – |
| CRRFQDC (displayed on phage) [peptide from phage recovered from kidney] | – | – | 2.1 | 1 | – |
| CTRITESC (displayed on phage) [peptide from phage recovered from brain] | 2.8 | 2 | – | – | – |
| CTSPGGSC (displayed on phage) [peptide from phage recovered from kidney] | – | – | 4.2 | 2 | – |
| CIEGVLGGC (cysteine pairing not given here; also: displayed on phage) [peptide from phage recovered from mouse B16B15b melanoma] | – | – | – | – | # clones [1]: 2; % of total phage [1]: 2% |
| CWARAQGC (displayed on phage) [peptide from phage recovered from kidney] | – | – | 4.2 | 2 | – |
| CNSRLQLRC (displayed on phage) [peptide from phage recovered from brain] | 5.5 | 4 | – | – | – |
| CVAWLNC (displayed on phage) [peptide from phage recovered from kidney] | – | – | 2.1 | 1 | – |
| CLMGVHC (displayed on phage) [peptide from phage recovered from kidney] | – | – | 2.1 | 1 | – |
| CKLMGEC (displayed on phage) [peptide from phage recovered from kidney] | – | – | 2.1 | 1 | – |
| CSSTMRC (cysteine pairing not given here; also: displayed on phage) [peptide from phage recovered from mouse B16B15b melanoma] | – | – | – | – | # clones [1]: 2; % of total phage [1]: 2% |
| CFVGHDLC (displayed on phage) [peptide from phage recovered from kidney] | – | – | 2.1 | 1 | – |
| CGNPSYRC (displayed on phage) [peptide from phage recovered from brain] | 1.4 | 1 | – | – | – |
| CLGRSSVC (displayed on phage) [peptide from phage recovered from kidney] | – | – | 4.2 | 2 | – |
| CSVANSC (cysteine pairing not given here; also: displayed on phage) [peptide from phage recovered from mouse B16B15b melanoma] | – | – | – | – | # clones [1]: 3; % of total phage [1]: 3% |
| CKLLSGVC (displayed on phage) [peptide from phage recovered from kidney] | – | – | 2.1 | 1 | – |
| CGRSLDAC (displayed on phage) [peptide from phage recovered from brain] | 1.4 | 1 | – | – | – |
| CMGRWRLC (displayed on phage) [peptide from phage recovered from kidney] | – | – | 2.1 | 1 | – |
| CLDWGRIC (displayed on phage) [peptide from phage recovered from brain] | 2.8 | 2 | – | – | – |
| CVGECGGC (displayed on phage) [peptide from phage recovered from kidney] | – | – | 2.1 | 1 | – |
| CVLRGGRC (displayed on phage) [peptide from phage recovered from brain] | 6.8 | 5 | – | – | – |
| CRHWFDVVC (displayed on phage) [peptide from phage recovered from brain] | 1.4 | 1 | – | – | – |
| CKDWGRIC (displayed on phage) [peptide from phage recovered from brain] | 2.8 | 2 | – | – | – |
| CANAQSHC (displayed on phage) [peptide from phage recovered from brain] | 1.4 | 1 | – | – | – |
| YPCGGEAVAGVSSVRTMCSE (displayed on phage) [peptide from phage recovered from brain] | 1.4 | 1 | – | – | – |
| CRTGTLFC (displayed on phage) [peptide from phage recovered from brain] | 1.4 | 1 | – | – | – |
| WGTGLC (also: displayed on phage) [peptide from phage recovered from mouse B16B15b melanoma] | – | – | – | – | # clones [1]: 22; % of total phage [1]: 25% |
| CRCLNVC (displayed on phage) [peptide from phage recovered from kidney] | – | – | 2.1 | 1 | – |
| CETLPAC (displayed on phage) [peptide from phage recovered from brain] | 1.4 | 1 | – | – | – |
